Measurements taken from patent US9693997B2, “Antiviral compounds” (priority 2013, dated 2017).
Structures can show the parent of a compound that is named as a salt. Where two headings read alike, the source gives them in different places.

Columns and labels:
[1] = system: Pseudotyped HCV GT1b particles (HCVpp), entry into Huh7-high CD81 cells; experiment: microbe, parasite or virus in culture; format: cell-based, HCV GT1b Con1 strain
[2] = system: pseudotyped VSV G particles (VSVpp) in Huh7-high CD81 cells; experiment: microbe, parasite or virus in culture; format: cell-based, vesicular stomatitis virus
[3] = Hepatitis C virus, GT1B, 72 h, read-out: HCVpp GT-1b (EC50, μM)
[4] = Vesicular stomatitis virus, 72 h, read-out: VSVpp (EC50, μM)

Molecule | EC50 [1, 3] | EC50 [2, 4] | EC50 ([1]; read-out: HCVpp GT-1b (EC50)) | EC50 ([2]; read-out: VSVpp (EC50))
Nc1n[nH]c(Nc2cc(F)c(-c3ccc(S(=O)(=O)C(F)(F)F)cc3)c(C(F)(F)F)c2)n1 [Compound 88, N^5-[6-Fluoro-4′-trifluoromethanesulfonyl-2-trifluoromethylbiphenyl-4-yl]-1H-[1,2,4]-triazole-3,5-diamine] | 1.95 µM | 25.2 µM | – | –
Nc1nc(Nc2ccc(-c3ccccc3Cl)c(Cl)c2)n[nH]1 [Compound 155, N*3*-(2,2′-Dichloro-biphenyl-4-yl)-1H-[1,2,4]triazole-3,5-diamine] | 1.66 µM | 7.46 µM | – | –
CS(=O)(=O)c1ccc(-c2ccc(Nc3n[nH]c(N)n3)cc2C(F)(F)F)cc1 [Compound 90, N3-(4′-(methylsulfonyl)-2-(trifluoromethyl)biphenyl-4-yl)-1H-1,2,4-triazole-3,5-diamine] | 0.875 µM | 15.7 µM | – | –
N#Cc1ccc(-c2c(F)cc(Nc3nc(N)n[nH]3)cc2C(F)(F)F)cc1 [Compound 79, 4′-(5-Amino-2H-[1,2,4]-triazol-3-ylamino)-6′-fluoro-2′-trifluoromethyl-biphenyl-4-carbonitrile] | 0.483 µM | 8.11 µM | – | –
COc1ccc(-c2c(Cl)cc(Nc3n[nH]c(N)n3)cc2C(F)(F)F)cc1S(=O)(=O)NC1(C)CNC1 [Compound 215, 4′-(5-amino-1H-1,2,4-triazol-3-ylamino)-2′-chloro-4-methoxy-N-(3-methylazetidin-3-yl)-6′-(trifluoromethyl)biphenyl-3-sulfonamide hydrochloride] | 0.111 µM | > 10 µM | – | –
COc1ccc(-c2c(F)cc(Nc3nc(N)n[nH]3)cc2C(F)(F)F)cc1 [Compound 86, N^5-[6-Fluoro-4′-methoxy-2-trifluoromethylbiphenyl-4-yl]-1H-[1,2,4]-triazole-3,5-diamine] | 0.525 µM | 8.87 µM | – | –
CS(=O)(=O)n1ccc2c(-c3c(Cl)cc(Nc4n[nH]c(N)n4)cc3Cl)cccc21 [Compound 15, N*3*-[3,5-Dichloro-4-(1-methanesulfonyl-1H-indol-4-yl)-phenyl]-1H-[1,2,4]triazole-3,5-diamine] | 0.05 µM | 0.23 µM | – | –
CC(C)(C)CCN1CCCC(S(=O)(=O)c2ccc(-c3c(Cl)cc(Nc4n[nH]c(N)n4)cc3C(F)(F)F)cc2)C1 (stereo not shown) [Compound 17, N*3*-{2-Chloro-4′-[1-(3,3-dimethyl-butyl)-piperidine-3-sulfonyl]-6-trifluoromethyl-biphenyl-4-yl}-1H-[1,2,4]triazole-3,5-diamine; hydrochloride] | 0.043 µM | 4.9 µM | – | –
Nc1nc(Nc2cc(Cl)c(-c3cccc(S(N)(=O)=O)c3)c(C(F)(F)F)c2)n[nH]1 [Compound 197, 4′-(5-amino-1H-1,2,4-triazol-3-ylamino)-2′-chloro-6′-(trifluoromethyl)biphenyl-3-sulfonamide 2,2,2-trifluoroacetate] | 0.249 µM | > 10 µM | – | –
Nc1n[nH]c(Nc2cc(F)c(-c3ccc(C(F)(F)F)cc3)c(C(F)(F)F)c2)n1 [Compound 246, N^5-[6-Fluoro-2,4′-bis-trifluoromethylbiphenyl-4-yl]-1H-[1,2,4]-triazole-3,5-diamine] | 3.54 µM | 37.9 µM | – | –
CS(=O)(=O)CCN1CCC(Oc2ccc(-c3c(Cl)cc(Nc4n[nH]c(N)n4)cc3C(F)(F)F)cc2)CC1 [Compound 141, N*3*-{6-Chloro-4′-[1-(2-methanesulfonyl-ethyl)-piperidin-4-yloxy]-2-trifluoromethyl-biphenyl-4-yl}-1H-[1,2,4]triazole-3,5-diamine hydrochloride] | 0.194 µM | > 10 µM | – | –
N#Cc1cccc(-c2c(F)cc(Nc3nc(N)n[nH]3)cc2C(F)(F)F)c1 [Compound 89, 4′-(5-Amino-2H-[1,2,4]-triazol-3-ylamino)-6′-fluoro-2′-trifluoromethyl-biphenyl-3-carbonitrile] | 25.1 µM | 33.3 µM | – | –
CS(=O)(=O)c1ccc(-c2ccc(Nc3n[nH]c(N)n3)cc2Cl)cc1 [Compound 154, N*3*-(2-Chloro-4′-methanesulfonyl-biphenyl-4-yl)-1H-[1,2,4]triazole-3,5-diamine] | 2.47 µM | 16.4 µM | – | –
CNS(=O)(=O)c1cccc(-c2c(Cl)cc(Nc3n[nH]c(N)n3)cc2Cl)c1 [Compound 119, 4′-(5-Amino-1H-[1,2,4]triazol-3-ylamino)-2′,6′-dichloro-biphenyl-3-sulfonic acid methylamide] | 0.046 µM | 3.94 µM | – | –
Nc1n[nH]c(Nc2cc(F)c(-c3ccc(S(=O)(=O)N4CCOCC4)cc3)c(F)c2)n1 [Compound 77, N^5-(2,6-difluoro-4′-(morpholine-4-sulfonyl)biphenyl-4-yl)-1H-[1,2,4]-triazole-3,5-diamine] | 0.19 µM | 24.7 µM | – | –
Nc1nc(Nc2cc(Cl)c(-c3cccc(OC4CCNCC4)c3)c(C(F)(F)F)c2)n[nH]1 [Compound 41, N*3*-[2-Chloro-3′-(piperidin-4-yloxy)-6-trifluoromethyl-biphenyl-4-yl]-1H-[1,2,4]triazole-3,5-diamine; hydrochloride] | 0.166 µM | > 10 µM | – | –

Molecule | EC50 [1, 3] | EC50 [2, 4] | EC50 ([1]; read-out: HCVpp GT-1b (EC50)) | EC50 ([2]; read-out: VSVpp (EC50))
Nc1nc(Nc2cc(Cl)c(-c3ccc(OCC(O)CO)cc3)c(Cl)c2)n[nH]1 (stereo not shown) [Compound 282, 3-[4′-(5-Amino-1H-[1,2,4]triazol-3-ylamino)-2′,6′-dichloro-biphenyl-4-yloxy]-propane-1,2-diol-diamine] | 0.213 µM | 39.7 µM | – | –
CC(C)(C)OC(=O)N1CCCC(Oc2ccc(-c3c(Cl)cc(Nc4n[nH]c(N)n4)cc3C(F)(F)F)cc2)C1 (stereo not shown) [Compound 129, 3-[4′-(5-Amino-1H-[1,2,4]triazol-3-ylamino)-6′-chloro-2′-trifluoromethyl-biphenyl-4-yloxy]-piperidine-1-carboxylic acid tert-butyl ester] | 0.017 µM | 9.62 µM | – | –
CCCCC(=O)Nc1ccc(-c2ccc(Nc3n[nH]c(N)n3)cc2)cc1 [Compound 53, Pentanoic acid [4′-(5-amino-1H-[1,2,4]triazol-3-ylamino)-biphenyl-4-yl]-amide] | 5.61 µM | 4.38 µM | – | –
CS(=O)(=O)N1CCOc2ccc(-c3c(Cl)cc(Nc4n[nH]c(N)n4)cc3C(F)(F)F)cc21 [Compound 44, N*3*-[3-Chloro-4-(4-methanesulfonyl-3,4-dihydro-2H-benzo[1,4]oxazin-6-yl)-5-trifluoromethyl-phenyl]-1H-[1,2,4]triazole-3,5-diamine] | 0.236 µM | 4.92 µM | – | –
CS(=O)(=O)c1ccc(-c2c(Cl)cc(Nc3n[nH]c(N)n3)cc2Cl)cc1C(F)(F)F [Compound 14, N*3*-(2,6-Dichloro-4′-methanesulfonyl-3′-trifluoromethyl-biphenyl-4-yl)-1H-[1,2,4]triazole-3,5-diamine] | 0.052 µM | 0.12 µM | – | –
COc1ccc(-c2c(Cl)cc(Nc3n[nH]c(N)n3)cc2C(F)(F)F)cc1S(=O)(=O)N1CCNCC1 [Compound 182, N3-(2-chloro-4′-methoxy-3′-(piperazin-1-ylsulfonyl)-6-(trifluoromethyl)biphenyl-4-yl)-1H-1,2,4-triazole-3,5-diamine hydrochloride] | 0.044 µM | > 10 µM | – | –
Nc1nc(Nc2cc(Cl)c(-c3ccc(O[C@H]4CCNC4)cc3)c(Cl)c2)n[nH]1 [Compound 271, N*3*-[2,6-Dichloro-4′-((S)-pyrrolidin-3-yloxy)-biphenyl-4-yl]-1H-[1,2,4]triazole-3,5-diamine] | 0.12 µM | 4.39 µM | – | –
4′-(5-amino-1H-1,2,4-triazol-3-ylamino)-2′-chloro-3-methoxy-N-(piperidin-4-yl)-6′-(trifluoromethyl)biphenyl-4-sulfonamide hydrochloride [Compound 178] | – | – | 0.023 µM | > 10 µM
Nc1nc(Nc2cc(Cl)c(-c3ccc4[nH]c(=O)[nH]c4c3)c(Cl)c2)n[nH]1 [Compound 255] | 0.42 µM | > 10 µM | – | –
CC(C)(C)NC(=O)c1ccc(-c2c(Cl)cc(Nc3n[nH]c(N)n3)cc2Cl)cc1 [Compound 8, 4′-(5-Amino-1H-[1,2,4]triazol-3-ylamino)-2′,6′-dichloro-biphenyl-4-carboxylic acid tert-butylamide] | 0.013 µM | > 10 µM | – | –
Nc1nc(Nc2cc(Cl)c(-c3ccc(S(=O)(=O)C4CCNCC4)cc3)c(C(F)(F)F)c2)n[nH]1 [Compound 20, N3-(2-chloro-4′-(piperidin-4-ylsulfonyl)-6-(trifluoromethyl)biphenyl-4-yl)-1H-1,2,4-triazole-3,5-diamine hydrochloride] | 0.053 µM | 3.46 µM | – | –
Nc1nc(Nc2cc(Cl)c(-c3ccc(OCCC4CCCN4)cc3)c(Cl)c2)n[nH]1 (stereo not shown) [Compound 264, N*3*-[2,6-Dichloro-4′-(2-pyrrolidin-2-yl-ethoxy)-biphenyl-4-yl]-1H-[1,2,4]triazole-3,5-diamine] | 0.048 µM | 6.5 µM | – | –
[4′-(5-amino-1H-[1,2,4]triazol-3-ylamino)-2′-chloro-6′-trifluoromethyl-biphenyl-4-yl]-carbamic acid propyl ester [Compound 238] | – | – | 0.078 µM | 24.9 µM
COCC(=O)Nc1ccc(-c2c(Cl)cc(Nc3n[nH]c(N)n3)cc2Cl)cc1 [Compound 73, N-(4′-(5-amino-1H-[1,2,4]triazol-3-ylamino)-2′,6′-dichlorobiphenyl-4-yl)-2-methoxyacetamide] | 0.113 µM | 24.1 µM | – | –
CC(C)(C)NS(=O)(=O)c1cc(-c2c(Cl)cc(Nc3n[nH]c(N)n3)cc2C(F)(F)F)ccc1OC(F)(F)F [Compound 193, 4′-(5-amino-1H-1,2,4-triazol-3-ylamino)-N-tert-butyl-2′-chloro-4-(trifluoromethoxy)-6′-(trifluoromethyl)biphenyl-3-sulfonamide] | 0.075 µM | 4.97 µM | – | –
CS(=O)(=O)Nc1ccc(-c2c(Cl)cc(Nc3n[nH]c(N)n3)cc2Cl)c(F)c1 [Compound 28, N-[4′-(5-Amino-1H-[1,2,4]triazol-3-ylamino)-2′,6′-dichloro-2-fluoro-biphenyl-4-yl]-methanesulfonamide] | 0.083 µM | 4.02 µM | – | –
